Test results reported in US11746100B2 (GLOBAL BLOOD THERAPEUTICS, INC., priority 2020, dated 2023).

target: T1, human ferroportin (Homo sapiens, UniProt Q9NP59); assay: Biological in-vitro ferroportin internalization assay (luciferase reporter); format: cell-based; conditions: average pEC50; stably-transfected CHO cell line expressing human ferroportin tagged to a luciferase reporter; 6 h incubation with test compound
T1 construct: luciferase reporter (read with the Nano-Glo Luciferase Assay System); expressed in transfected cells; host or cells: CHO cells, stably transfected, expression induced with doxycycline
T1 sequence (Q9NP59 1-571): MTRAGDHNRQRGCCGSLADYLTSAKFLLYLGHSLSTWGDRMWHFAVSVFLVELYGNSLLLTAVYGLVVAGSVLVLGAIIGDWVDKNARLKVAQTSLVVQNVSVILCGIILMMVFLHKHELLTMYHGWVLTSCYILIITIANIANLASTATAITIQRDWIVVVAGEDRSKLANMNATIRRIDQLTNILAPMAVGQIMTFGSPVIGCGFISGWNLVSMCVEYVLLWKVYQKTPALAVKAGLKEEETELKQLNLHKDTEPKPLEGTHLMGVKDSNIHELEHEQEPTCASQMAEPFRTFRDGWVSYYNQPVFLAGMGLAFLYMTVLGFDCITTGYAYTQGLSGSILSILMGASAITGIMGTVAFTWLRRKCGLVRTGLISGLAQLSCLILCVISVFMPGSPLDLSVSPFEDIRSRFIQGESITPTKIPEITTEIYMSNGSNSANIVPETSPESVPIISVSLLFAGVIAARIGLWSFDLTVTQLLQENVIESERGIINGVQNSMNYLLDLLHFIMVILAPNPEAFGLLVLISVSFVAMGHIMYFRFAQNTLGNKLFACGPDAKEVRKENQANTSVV
Outline: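 Stably transfected CHO cells expressing luciferase-tagged human ferroportin, plated 24 h with ferric ammonium citrate and induced with doxycycline for 24 h. Compounds incubated 6 h, then luciferase activity measured by Nano-Glo; average pEC50 reported.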

SMILES	pEC50
CN(CC(=O)Nc1cncc(OC(F)(F)F)c1)c1nc(-c2cc3ccccc3cn2)nc2c1CCC2 [Compound 283, 2-{[2-(isoquinolin-3-yl)-5H,6H,7H-cyclopenta[d]pyrimidin-4-yl](methyl)amino}-N-[5-(trifluoromethoxy)pyridin-3-yl]acetamide]	6.6
C[C@H](C(=O)NC(C)(C)C)N(C)c1nc(-c2cc(OCCO)ccn2)nc2c1CCC2 [Compound 311, (2R)-N-tert-butyl-2-({2-[4-(2-hydroxyethoxy)pyridin-2-yl]-5H,6H,7H-cyclopenta[d]pyrimidin-4-yl}(methyl)amino)propanamide]	8.4
CC(C)NC(=O)CN(C)c1nc(-c2cc(OCCN3CCN(C)CC3)ccn2)nc2c1CCC2 [Compound 432, 2-[methyl(2-{4-[2-(4-methylpiperazin-1-yl)ethoxy]pyridin-2-yl}-5H,6H,7H-cyclopenta[d]pyrimidin-4-yl)amino]-N-(propan-2-yl)acetamide]	7.5
CSc1ccnc(-c2nc3c(c(N(C)CC(=O)NC(C)(C)C)n2)CCC3)c1 [Compound 498, N-tert-butyl-2-[methyl({2-[4-(methylsulfanyl)pyridin-2-yl]-5H,6H,7H-cyclopenta[d]pyrimidin-4-yl})amino]acetamide]	7.5
COc1ccc(NC(=O)CN(C)c2nc(-c3cc(OC)ccn3)nc3c2CCC3)nc1 [Compound 152, N-(5-methoxypyridin-2-yl)-2-{[2-(4-methoxypyridin-2-yl)-5H,6H,7H-cyclopenta[d]pyrimidin-4-yl](methyl)amino}acetamide]	7.9
COc1ncc(NC(=O)CN(C)c2nc(-c3cc(OCCO)ccn3)nc3c2CCC3)cn1 [Compound 197, 2-({2-[4-(2-hydroxyethoxy)pyridin-2-yl]-5H,6H,7H-cyclopenta[d]pyrimidin-4-yl}(methyl)amino)-N-(2-methoxypyrimidin-5-yl)acetamide]	7.4
Cc1cnc(CCNC(=O)CN(C)c2nc(-c3ccccn3)nc3c2CCC3)n1C1CCC1 [Compound 69, N-[2-(1-cyclobutyl-5-methyl-1H-imidazol-2-yl)ethyl]-2-{methyl[2-(pyridin-2-yl)-5H,6H,7H-cyclopenta[d]pyrimidin-4-yl]amino}acetamide]	7
CCOc1ccnc(-c2nc3c(c(N(C)CC(=O)NC(C)(C)C)n2)CCC3)c1 [Compound 467, N-tert-butyl-2-{[2-(4-ethoxypyridin-2-yl)-5H,6H,7H-cyclopenta[d]pyrimidin-4-yl](methyl)amino}acetamide]	8.3
CC(=O)NCCOc1ccnc(-c2nc3c(c(N(C)CC(=O)NC(C)(C)C)n2)CCC3)c1 [Compound 369, N-tert-butyl-2-({2-[4-(2-acetamidoethoxy)pyridin-2-yl]-5H,6H,7H-cyclopenta[d]pyrimidin-4-yl}(methyl)amino)acetamide]	7.7
c1ccc(-c2nc3c(c(N4CCCO[C@H]5CCC[C@@H]54)n2)CCC3)nc1 [Compound 18, 2-{4-[(5aS,8aS)-octahydro-2H-cyclopenta[b][1,4]oxazepin-5-yl]-5H,6H,7H-cyclopenta[d]pyrimidin-2-yl}pyridine]	7.1
C[C@H](CN(C)C)Oc1ccnc(-c2nc3c(c(N(C)CC(=O)NC(C)(C)C)n2)CCC3)c1 [Compound 406, N-tert-butyl-2-{[2-(4-{[(2R)-1-(dimethylamino)propan-2-yl]oxy}pyridin-2-yl)-5H,6H,7H-cyclopenta[d]pyrimidin-4-yl](methyl)amino}acetamide]	7.7
CC(C)NC(=O)CN(C)c1nc(-c2cc(OCC3(O)CC3)ccn2)nc2c1CCC2 [Compound 431, 2-[(2-{4-[(1-hydroxycyclopropyl)methoxy]pyridin-2-yl}-5H,6H,7H-cyclopenta[d]pyrimidin-4-yl)(methyl)amino]-N-(propan-2-yl)acetamide]	7.4
Cc1ccc(NC(=O)CN(C)c2nc(-c3cc(OCC4(O)CC4)ccn3)nc3c2CCC3)cn1 [Compound 330, 2-[(2-{4-[(1-hydroxycyclopropyl)methoxy]pyri-din-2-yl}-5H,6H,7H-cyclopenta[d]pyrimidin-4-yl)(methyl)amino]-N-(6-methylpyridin-3-yl)acetamide]	7.8
CN(CC(=O)Nc1cnn(C2CC2)c1)c1nc(-c2cc(OCCO)ccn2)nc2c1CCC2 [Compound 353, N-(1-cyclopropyl-1H-pyrazol-4-yl)-2-({2-[4-(2-hydroxyethoxy)pyridin-2-yl]-5H,6H,7H-cyclopenta[d]pyrimidin-4-yl}(methyl)amino)acetamide]	7.8
CN(Cc1ncnn1-c1cccc(F)c1)c1nc(-c2cc(OCCO)ccn2)nc2c1CCC2 [Compound 315, 2-({2-[4-({[1-(3-fluorophenyl)-1H-1,2,4-triazol-5-yl]methyl}(methyl)amino)-5H,6H,7H-cyclopenta[d]pyrimidin-2-yl]pyridin-4-yl}oxy)ethan-1-ol]	6.8
CN(C)CCOc1ccnc(-c2nc3c(c(N(C)CC(=O)NCC(F)(F)F)n2)CCC3)c1 [Compound 478, 2-[(2-{4-[2-(dimethylamino)ethoxy]pyridin-2-yl}-5H,6H,7H-cyclopenta[d]pyrimidin-4-yl)(methyl)amino]-N-(2,2,2-trifluoroethyl)acetamide]	7.6
CSCC[C@H](C(=O)NC(C)(C)C)N(C)c1nc(-c2cc(OC(F)F)ccn2)nc2c1CCC2 [Compound 212, (2R)—N-tert-butyl-2-({2-[4-(difluoromethoxy)pyridin-2-yl]-5H,6H,7H-cyclopenta[d]pyrimidin-4-yl}(methyl)amino)-4-(methylsulfanyl)butanamide]	7.1

The next lines start with the values.

pEC50	SMILES
7.2	CN(CC(=O)NC1(C(F)(F)F)CC1)c1nc(-c2cn(C)cn2)nc2c1CCC2 [Compound 111, 2-{methyl[2-(1-methyl-1H-imidazol-4-yl)-5H,6H,7H-cyclopenta[d]pyrimidin-4-yl]amino}-N-[1-(trifluoromethyl)cyclopropyl]acetamide]
7.9	COc1ccc(NC(=O)CN(C)c2nc(-c3cc(OCC(C)(C)O)ccn3)nc3c2CCC3)cn1 [Compound 210, 2-({2-[4-(2-hydroxy-2-methylpropoxy)pyridin-2-yl]-5H,6H,7H-cyclopenta[d]pyrimidin-4-yl}(methyl)amino)-N-(6-methoxypyridin-3-yl)acetamide]
7.2	COc1ccnc(-c2nc3c(c(N(C)CC(=O)N[C@H]4CCC[C@H]4O)n2)CCC3)c1 [Compound 171, N-[(1S,2R)-2-hydroxycyclopentyl]-2-{[2-(4-methoxypyridin-2-yl)-5H,6H,7H-cyclopenta[d]pyrimidin-4-yl](methyl)amino}acetamide]
6.5	CN(CC(=O)Nc1ccc(F)nc1)c1nc(-c2cc3cnn(C4CCCCO4)c3cn2)nc2c1CCC2 (stereo not shown) [Compound 264, N-(6-fluoropyridin-3-yl)-2-[methyl({2-[1-(oxan-2-yl)-1H-pyrazolo[3,4-c]pyridin-5-yl]-5H,6H,7H-cyclopenta[d]pyrimidin-4-yl})amino]acetamide]
7.9	COc1ccnc(-c2nc3c(c(N(C)CC(=O)N(C)C(C)(C)C)n2)CCC3)c1 [Compound 156, N-tert-butyl-2-{[2-(4-methoxypyridin-2-yl)-5H,6H,7H-cyclopenta[d]pyrimidin-4-yl](methyl)amino}-N-methylacetamide]
7.7	CN(CC(=O)N1CCCCCC1)c1nc(-c2cc(OC3COC3)ccn2)nc2c1CCC2 [Compound 358, 1-(azepan-1-yl)-2-[methyl({2-[4-(oxetan-3-yloxy)pyridin-2-yl]-5H,6H,7H-cyclopenta[d]pyrimidin-4-yl})amino]ethan-1-one]
7.3	Cc1ncc(NC(=O)CN(C)c2nc(-c3cc(OCCO)ccn3)nc3c2CCC3)cn1 [Compound 291, 2-({2-[4-(2-hydroxyethoxy)pyridin-2-yl]-5H,6H,7H-cyclopenta[d]pyrimidin-4-yl}(methyl)amino)-N-(2-methylpyrimidin-5-yl)acetamide]
7.2	Cc1ccc(NC(=O)CN(C)c2nc(-c3cc4ccccc4cn3)nc3c2CCC3)cn1 [Compound 222, 2-{[2-(isoquinolin-3-yl)-5H,6H,7H-cyclopenta[d]pyrimidin-4-yl](methyl)amino}-N-(6-methylpyridin-3-yl)acetamide]
7.9	CCN(CC(=O)NC(C)(C)C)c1nc(-c2cc(OC)ccn2)nc2c1CCC2 [Compound 126, N-tert-butyl-2-{ethyl[2-(4-methoxypyridin-2-yl)-5H,6H,7H-cyclopenta[d]pyrimidin-4-yl]amino}acetamide]
7.1	COc1ccc2cc(-c3nc4c(c(N(C)CC(=O)NC(C)(C)C)n3)CCC4)ncc2c1 [Compound 262, N-tert-butyl-2-{[2-(7-methoxyisoquinolin-3-yl)-5H,6H,7H-cyclopenta[d]pyrimidin-4-yl](methyl)amino}acetamide]
7.4	CN(CC(=O)Nc1cnn(C)c1)c1nc(-c2cc(OCCF)ccn2)nc2c1CCC2 [Compound 243, 2-({2-[4-(2-fluoroethoxy)pyridin-2-yl]-5H,6H,7H-cyclopenta[d]pyrimidin-4-yl}(methyl)amino)-N-(1-methyl-1H-pyrazol-4-yl)acetamide]
